PubChem BioAssay (NCI)
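Cells were grown in 96-well plates and exposed to each compound for 48 hours at five concentrations; endpoints were interpolated linearly between bracketing concentrations, or set to the highest concentration if not reached. The concentration for 50% growth inhibition is given as GI50. TGI marks complete inhibition of growth.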

What was measured:
Assay in all cases: NCI anticancer screen, dose series, 48 h
HCT-15 colon = test system: HCT-15 colon
A549 NSCLC = test system: A549 NSCLC
OVCAR-8 ovarian = test system: OVCAR-8 ovarian
A498 renal = test system: A498 renal
MALME-3M melanoma = test system: MALME-3M melanoma
CAKI-1 renal = test system: CAKI-1 renal
HCT-116 colon = test system: HCT-116 colon
K-562 leukemia = test system: K-562 leukemia

Structure (SMILES) | GI50 (HCT-15 colon) [µM] | TGI (HCT-15 colon) [µM] | GI50 (A549 NSCLC) [µM] | TGI (A549 NSCLC) [µM] | GI50 (OVCAR-8 ovarian) [µM] | TGI (OVCAR-8 ovarian) [µM] | GI50 (A498 renal) [µM] | TGI (A498 renal) [µM] | GI50 (MALME-3M melanoma) [µM] | TGI (MALME-3M melanoma) [µM] | GI50 (CAKI-1 renal) [µM] | TGI (CAKI-1 renal) [µM] | GI50 (HCT-116 colon) [µM] | TGI (HCT-116 colon) [µM] | GI50 (K-562 leukemia) [µM] | TGI (K-562 leukemia) [µM]
COc1ccc(OC)c(C2SCC(=O)N2NC(=O)C(O)c2ccccc2)c1 (configuration not stated) | > 100 | > 100 | > 100 | > 100 | > 100 | > 100 | > 100 | > 100 | > 100 | > 100 | > 100 | > 100 | > 100 | > 100 | > 100 | > 100
COc1cc2c(c(OC)c1OC)-c1ccc(SC)c(=O)cc1[C@@H](NC1OC(CO)C(O)C(O)C1O)CC2 (some centres not stated) | 0.0374 | > 100 | 0.0385 | > 100 | 0.0387 | > 100 | 0.0135 | 0.0674 | 44.8 | > 100 | 0.0727 | > 100 | 0.0314 | > 100 | 0.0227 | > 100
COc1ccc(-c2cc(=O)c3c(OC)c(OC)c(OC)c(OC)c3o2)cc1 | – | > 100 | – | > 100 | – | > 100 | – | 83.9 | – | > 100 | – | > 100 | – | > 100 | – | > 100
CCCCCn1sc(=O)n(Cc2ccc(CNC(=O)OCc3ccc4cccc(O)c4n3)cc2)c1=O | 1.44 | 4.81 | 2.12 | 5.57 | 1.85 | 9.89 | 1.73 | 4.58 | 1.56 | 3 | 0.935 | 2.17 | 0.419 | 2.69 | 0.846 | 15.7
BrCc1ccc(CBr)cc1 | 5.44 | > 75.2 | 21.7 | 76.8 | 5.52 | 20.9 | 18.3 | 38.1 | 4.56 | 12.5 | 1.99 | 6.92 | 5.4 | – | 7.1 | > 20.6
Cc1cccc(NC(=O)c2sc3nc4c(cc3c2N)CN(Cc2ccccc2)CC4)c1C | 0.176 | > 50 | 0.381 | > 50 | 0.297 | > 50 | 0.397 | > 50 | 0.239 | > 50 | – | – | 0.227 | > 50 | 0.104 | > 50
CC(=O)c1c(C(F)(F)F)n([O-])c2ccc(C)cc2[n+]1=O | 2.45 | 39.4 | 4.48 | 26.6 | 3.82 | > 100 | 4.42 | 18.9 | 2.54 | 15.6 | 3.46 | 24.6 | 3.89 | > 41.1 | 1.1 | 21.4
C#CCOc1cccc(Nc2ncnc3c(NC(=O)CCl)cccc23)c1 | 20.2 | 72.5 | 22.1 | 49.9 | 31.6 | > 100 | > 100 | > 100 | 16.1 | 35 | 15.8 | 30.7 | 18.1 | 42.1 | 17.5 | 71.7
COc1ccc(C(=O)N2c3ccccc3Sc3ccccc32)c(OC)c1 | 0.464 | > 100 | 0.785 | > 100 | 0.749 | > 100 | 0.307 | 16.6 | 0.416 | > 100 | 0.573 | > 100 | 0.452 | > 100 | 0.381 | > 100
CCN1C(=O)N(CC)C2C1NN=c1s/c(=C\c3ccccc3Br)c(=O)n12 (configuration not stated) | 0.0303 | 12.6 | 0.0408 | > 75.3 | 0.0424 | > 73.5 | < 0.0156 | 0.0598 | 1.12 | 33.7 | 0.0242 | 26.3 | 0.0302 | 11.6 | 0.0329 | > 100
Cc1ccc(C2=Nc3ccccc3SC(c3cccc([N+](=O)[O-])c3)C2)cc1 (configuration not stated) | – | > 100 | – | > 100 | – | 71.2 | – | > 100 | – | > 100 | – | > 100 | – | 20.8 | – | 23.8
CCOc1nc(N)nc(C)c1N=Nc1ccc(Cl)cc1 | – | > 100 | – | > 100 | – | > 100 | – | – | – | > 100 | – | > 100 | – | > 100 | – | > 100
COc1ccc2cc(-c3c(-c4ccncc4)nc(-c4ccc(S(C)=O)cc4)n3C)ccc2c1 (configuration not stated) | 9.57 | > 25 | > 25 | > 25 | 17.9 | > 25 | > 7.37 | > 25 | 24.5 | > 25 | 19.4 | > 25 | 19.1 | > 25 | 15.6 | > 25
CCN(CCO)CC(C)Nc1ccc([N+](=O)[O-])c2sc3ccccc3c(=O)c12 (configuration not stated) | 1.76 | > 100 | 0.535 | 1.97 | 1.18 | 4.19 | 0.252 | 9.54 | 0.421 | 2.13 | 0.304 | 1.09 | 0.996 | 2.69 | 1.44 | 6.71
COC(=O)c1nc(-c2ccccc2)oc1S(=O)(=O)n1nc(C)cc1N | 4.51 | 17.8 | 28.9 | 84 | 19.7 | 50.3 | 18.7 | 70.2 | 1.78 | 4.06 | – | – | 4.73 | 17.6 | 2.13 | 6.98
CCCCn1c(=O)c2c(nc3n2CCCN3CCc2ccc(OCC(=O)NCCN(CC)CC)cc2)n(CCCC)c1=O | 1.11 | 3.47 | 7.12 | 15.4 | 7.1 | 26.4 | 0.54 | 2.51 | 0.922 | 1.98 | 2.63 | 9.94 | 1.63 | 6.42 | 1.31 | 4.39
N#CN1CC[C@H](C(=O)Nc2ncc(-c3ccncc3)s2)C1 | < 0.021 | > 100 | 0.262 | > 100 | 0.0596 | > 100 | 0.121 | 0.596 | < 0.0129 | 0.0694 | 0.101 | > 83.2 | 0.0401 | 3.2 | 0.0471 | > 100

Structure (SMILES) | GI50 (HCT-15 colon) [µM] | TGI (HCT-15 colon) [µM] | GI50 (A549 NSCLC) [µM] | TGI (A549 NSCLC) [µM] | GI50 (OVCAR-8 ovarian) [µM] | TGI (OVCAR-8 ovarian) [µM] | GI50 (A498 renal) [µM] | TGI (A498 renal) [µM] | GI50 (MALME-3M melanoma) [µM] | TGI (MALME-3M melanoma) [µM] | GI50 (CAKI-1 renal) [µM] | TGI (CAKI-1 renal) [µM] | GI50 (HCT-116 colon) [µM] | TGI (HCT-116 colon) [µM] | GI50 (K-562 leukemia) [µM] | TGI (K-562 leukemia) [µM]
CCn1c2ccccc2c2cc(/C=C(/C#N)C(N)=O)ccc21 | 14.8 | > 100 | 20.3 | > 100 | 42.6 | > 100 | 0.188 | 0.559 | > 75.2 | > 100 | 5.53 | > 77.9 | 3.71 | > 52.4 | 4.49 | > 100
N/N=C1\CC(=O)NC(=O)N1 | – | > 100 | – | > 100 | – | > 100 | – | > 100 | – | > 100 | – | > 100 | – | > 100 | – | > 100
CC(=O)Oc1ccccc1C(=O)/C=C/c1cccc([N+](=O)[O-])c1 | – | – | 5.48 | 23.3 | 3.11 | 10.4 | 2.54 | 17.6 | 13.6 | 30.5 | 2.95 | 14.9 | 1.66 | 3.07 | 3.14 | > 100
CCN(Cc1ccc(Cl)s1)c1ccc(CO)c(Cl)c1 | 4.2 | > 50.6 | 1.08 | 18.7 | 5.75 | 27.6 | 0.0495 | 0.189 | 10 | 28.1 | 2.27 | 34.6 | 0.0464 | 11.3 | 0.575 | > 53.9
Cn1cc(-c2nonc2-c2cn(C)c3ccccc23)c2ccccc21 | 0.537 | > 100 | 1.22 | > 100 | 1.5 | > 100 | 0.337 | – | 1.06 | > 100 | 0.653 | > 100 | 0.61 | > 100 | 0.342 | > 100
CCC1(O)C(=O)OCc2c1cc1n(c2=O)Cc2cc3cc(N)ccc3nc2-1 (configuration not stated) | – | 3.55 | – | 2.41 | – | 4.45 | – | 1.06 | – | 1.33 | – | 0.343 | – | – | – | 31.3
COC1O[C@@H]2C[C@H]3C(C)(C)CCC[C@]3(C)C3=CCCC1[C@@]32C (some centres not stated) | > 100 | > 100 | > 100 | > 100 | > 100 | > 100 | > 100 | > 100 | > 100 | > 100 | – | – | > 100 | > 100 | > 100 | > 100
CC1(C)CCC[C@]2(C)[C@@H](C=O)C(C=O)=CC[C@@H]12 | – | 30.7 | – | > 100 | – | 31.2 | – | > 100 | – | 32 | – | 23.1 | – | 83.4 | – | –
O=[N+]([O-])c1cc(S(=O)(=O)Oc2ccccc2)ccc1Cl | 3.56 | 12.5 | 3.43 | 14.5 | 5.15 | 19.7 | 1.68 | 4.05 | – | – | 1.53 | 2.89 | 1.85 | 3.43 | 0.432 | > 100
CN1CCN(Cc2ccc(NC(=O)c3[nH]ncc3Nc3ncnc4sc5c(c34)CCCC5)cc2)CC1 | 0.197 | 1.28 | – | – | 0.413 | 2.52 | 0.0865 | 0.668 | 1.35 | 2.82 | – | – | – | – | 0.198 | 1.14
Cc1nc2ccccc2c(/C=C/c2ccc(Br)cc2)c1C(=O)/C=C/c1ccccc1 | 1.31 | 3.71 | 1.91 | 4.57 | 1.57 | 3.48 | 1.75 | 3.28 | 1.7 | 3.12 | 1.26 | 2.62 | 0.601 | 2.28 | – | –
CC(C)(C)CN1CCn2c(nc3c(N)nccc32)S1 | 3.92 | 26.2 | 8.09 | 44.4 | 6.27 | > 100 | – | – | 7.72 | 41.3 | 25.3 | > 100 | 4.61 | 17.1 | 4.64 | 67.7
C[C@@H]1O[C@@H](OC[C@H]2O[C@@H](OCCc3ccc(O)c(O)c3)[C@H](O)[C@@H](O)[C@@H]2OC(=O)/C=C/c2ccc(O)c(O)c2)[C@H](O)[C@H](O)[C@H]1O | > 100 | > 100 | > 100 | > 100 | > 100 | > 100 | – | – | – | – | > 100 | > 100 | 50.5 | > 100 | > 100 | > 100
N#Cc1c(N)[nH]c2ccc(Sc3ccccc3)cc12 | – | 14.9 | – | 12.1 | – | 12 | – | 2.04 | – | – | – | 9.27 | – | 8.34 | – | 9.71
COc1ccc2c(c1OC)C(=O)OC2C1c2c(c([N+](=O)[O-])c3c(c2OC)OCO3)CCN1C (configuration not stated) | > 100 | > 100 | > 100 | > 100 | > 100 | > 100 | > 100 | > 100 | > 100 | > 100 | > 100 | > 100 | > 100 | > 100 | – | –
O=c1[nH]cnc2c(C3NC(CO)C(O)C3O)c[nH]c12 (configuration not stated) | > 100 | > 100 | > 100 | > 100 | > 100 | > 100 | > 100 | > 100 | > 100 | > 100 | > 100 | > 100 | > 100 | > 100 | – | –
CN1CCN(CC(O)COc2c(Br)c(Br)c(Br)c3c2OC(C)(C)C3)CC1 (configuration not stated) | 2.79 | 6.16 | 10.6 | 30.4 | 10.3 | 42.2 | 10.1 | 28.7 | – | – | 14.5 | 38.1 | 5.16 | > 100 | 2.06 | > 100
